Conditions: Liquid

CN1CCOCC1 [N-methylmorpholine]
Conditions	mass density [kg/m3]	viscosity [mPa·s]
293.15 K	918.74	1.028
303.15 K	909.54	0.959
313.15 K	902.37	0.858
323.15 K	893.32	0.754
333.15 K	884.36	0.626
343.15 K	876.52	0.498

Source: the NIST ThermoML archive (doi:10.1021/je800197t)
